Source: ChEMBL document CHEMBL4507318, “Data for DCP probe BAY-985” (2021)

Legend:
[1] = target: Ribosomal protein S6 kinase alpha-3 (Homo sapiens) (UniProt P51812)
[2] = target: Ephrin type-B receptor 3 (Homo sapiens) (UniProt P54753)
[3] = target: Serine/threonine-protein kinase MRCK beta (Homo sapiens) (UniProt Q9Y5S2)
[4] = target: 3-phosphoinositide-dependent protein kinase 1 (Homo sapiens) (UniProt O15530)
[5] = target: Serine/threonine-protein kinase Nek9 (Homo sapiens) (UniProt Q8TD19)
[6] = target: Inhibitor of nuclear factor kappa-B kinase subunit alpha (Homo sapiens) (UniProt O15111)
[7] = target: Serine/threonine-protein kinase NIM1 (Homo sapiens) (UniProt Q8IY84)
[8] = system: Mast/stem cell growth factor receptor Kit (Homo sapiens), P10721 [V559D,V654A]
[9] = target: Serine/threonine-protein kinase 16 (Homo sapiens) (UniProt O75716)
[10] = target: Serine/threonine-protein kinase D2 (Homo sapiens) (UniProt Q9BZL6)
[11] = target: Phosphatidylinositol 4-phosphate 5-kinase type-1 alpha (Homo sapiens) (UniProt Q99755)
[12] = target: Uncharacterized serine/threonine-protein kinase SBK3 (Homo sapiens) (UniProt P0C264)
[13] = system: Receptor-type tyrosine-protein kinase FLT3 (Homo sapiens), P36888 [N841I]
[14] = target: Atypical kinase COQ8B, mitochondrial (Homo sapiens) (UniProt Q96D53)
[15] = target: cGMP-dependent protein kinase 2 (Homo sapiens) (UniProt Q13237)
[16] = target: Alpha-1A adrenergic receptor (Homo sapiens) (UniProt P35348); conditions: Compound concentration 10.0 uM
Chain of Alpha-1A adrenergic receptor (Homo sapiens) (P35348 whole entry): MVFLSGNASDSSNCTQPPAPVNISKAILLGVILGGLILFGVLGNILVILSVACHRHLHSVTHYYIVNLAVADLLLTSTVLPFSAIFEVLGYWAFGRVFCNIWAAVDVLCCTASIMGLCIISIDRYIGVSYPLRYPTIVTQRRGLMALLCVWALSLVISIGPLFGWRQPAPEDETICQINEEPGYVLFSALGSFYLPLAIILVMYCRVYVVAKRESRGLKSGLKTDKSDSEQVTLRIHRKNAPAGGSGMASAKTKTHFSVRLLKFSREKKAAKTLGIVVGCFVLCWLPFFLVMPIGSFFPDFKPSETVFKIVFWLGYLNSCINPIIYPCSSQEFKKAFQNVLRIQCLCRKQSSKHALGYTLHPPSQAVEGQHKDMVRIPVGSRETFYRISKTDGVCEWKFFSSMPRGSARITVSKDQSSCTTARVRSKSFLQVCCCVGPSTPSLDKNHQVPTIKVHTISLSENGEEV

[17] = target: ALK tyrosine kinase receptor (Homo sapiens) (UniProt Q9UM73)
Chain of ALK tyrosine kinase receptor (Homo sapiens) (Q9UM73 19-1620 limits assumed): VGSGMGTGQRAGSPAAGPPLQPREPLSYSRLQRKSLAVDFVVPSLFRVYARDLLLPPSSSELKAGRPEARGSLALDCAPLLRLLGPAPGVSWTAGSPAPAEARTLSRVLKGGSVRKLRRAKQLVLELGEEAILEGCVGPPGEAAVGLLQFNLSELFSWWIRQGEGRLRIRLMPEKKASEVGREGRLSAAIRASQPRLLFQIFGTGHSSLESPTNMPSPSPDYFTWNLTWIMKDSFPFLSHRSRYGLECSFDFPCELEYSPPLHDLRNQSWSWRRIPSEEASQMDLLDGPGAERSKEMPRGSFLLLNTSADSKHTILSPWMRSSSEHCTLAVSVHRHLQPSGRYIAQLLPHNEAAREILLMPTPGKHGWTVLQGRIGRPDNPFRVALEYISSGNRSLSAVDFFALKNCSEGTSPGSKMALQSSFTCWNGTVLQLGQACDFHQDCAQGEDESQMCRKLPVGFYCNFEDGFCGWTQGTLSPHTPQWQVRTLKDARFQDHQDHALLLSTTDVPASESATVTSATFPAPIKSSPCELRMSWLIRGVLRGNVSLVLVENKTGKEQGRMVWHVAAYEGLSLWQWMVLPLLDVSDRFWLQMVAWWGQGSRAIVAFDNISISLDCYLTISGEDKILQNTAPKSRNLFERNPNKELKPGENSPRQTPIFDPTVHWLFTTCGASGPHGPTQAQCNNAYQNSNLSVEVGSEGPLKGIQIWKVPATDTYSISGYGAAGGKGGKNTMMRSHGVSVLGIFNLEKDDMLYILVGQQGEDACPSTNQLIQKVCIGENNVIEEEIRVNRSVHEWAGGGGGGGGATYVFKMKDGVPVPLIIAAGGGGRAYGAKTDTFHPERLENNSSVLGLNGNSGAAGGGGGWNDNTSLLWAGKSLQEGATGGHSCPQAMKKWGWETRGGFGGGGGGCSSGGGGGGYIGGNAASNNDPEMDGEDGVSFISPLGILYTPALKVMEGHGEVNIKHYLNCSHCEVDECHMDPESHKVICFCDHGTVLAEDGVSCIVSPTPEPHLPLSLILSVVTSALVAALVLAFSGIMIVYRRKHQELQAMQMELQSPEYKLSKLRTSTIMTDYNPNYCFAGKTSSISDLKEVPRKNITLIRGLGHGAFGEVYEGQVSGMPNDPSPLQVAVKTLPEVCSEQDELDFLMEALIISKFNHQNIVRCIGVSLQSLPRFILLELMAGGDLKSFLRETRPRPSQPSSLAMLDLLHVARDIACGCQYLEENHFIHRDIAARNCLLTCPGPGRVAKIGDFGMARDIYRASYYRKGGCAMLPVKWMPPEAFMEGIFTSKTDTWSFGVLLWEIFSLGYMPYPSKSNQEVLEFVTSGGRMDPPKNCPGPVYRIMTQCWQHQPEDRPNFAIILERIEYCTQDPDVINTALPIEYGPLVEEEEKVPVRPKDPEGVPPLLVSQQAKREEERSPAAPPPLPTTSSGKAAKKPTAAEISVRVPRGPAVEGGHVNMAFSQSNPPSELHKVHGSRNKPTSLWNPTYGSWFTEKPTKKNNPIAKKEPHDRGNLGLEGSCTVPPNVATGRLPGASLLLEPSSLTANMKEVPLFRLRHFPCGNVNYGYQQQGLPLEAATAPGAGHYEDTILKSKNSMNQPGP

[18] = target: Serine/threonine-protein kinase B-raf (Homo sapiens) (UniProt P15056)
[19] = target: Proto-oncogene tyrosine-protein kinase receptor Ret (Homo sapiens) (UniProt P07949)
[20] = target: Fibroblast growth factor receptor 4 (Homo sapiens) (UniProt P22455)
[21] = target: Cyclin-dependent kinase 4 (Homo sapiens) (UniProt P11802)
[22] = target: Ephrin type-A receptor 6 (Homo sapiens) (UniProt Q9UF33)
[23] = target: Myosin-IIIb (Homo sapiens) (UniProt Q8WXR4)
Chain of Myosin-IIIb (Homo sapiens) (Q8WXR4 whole entry): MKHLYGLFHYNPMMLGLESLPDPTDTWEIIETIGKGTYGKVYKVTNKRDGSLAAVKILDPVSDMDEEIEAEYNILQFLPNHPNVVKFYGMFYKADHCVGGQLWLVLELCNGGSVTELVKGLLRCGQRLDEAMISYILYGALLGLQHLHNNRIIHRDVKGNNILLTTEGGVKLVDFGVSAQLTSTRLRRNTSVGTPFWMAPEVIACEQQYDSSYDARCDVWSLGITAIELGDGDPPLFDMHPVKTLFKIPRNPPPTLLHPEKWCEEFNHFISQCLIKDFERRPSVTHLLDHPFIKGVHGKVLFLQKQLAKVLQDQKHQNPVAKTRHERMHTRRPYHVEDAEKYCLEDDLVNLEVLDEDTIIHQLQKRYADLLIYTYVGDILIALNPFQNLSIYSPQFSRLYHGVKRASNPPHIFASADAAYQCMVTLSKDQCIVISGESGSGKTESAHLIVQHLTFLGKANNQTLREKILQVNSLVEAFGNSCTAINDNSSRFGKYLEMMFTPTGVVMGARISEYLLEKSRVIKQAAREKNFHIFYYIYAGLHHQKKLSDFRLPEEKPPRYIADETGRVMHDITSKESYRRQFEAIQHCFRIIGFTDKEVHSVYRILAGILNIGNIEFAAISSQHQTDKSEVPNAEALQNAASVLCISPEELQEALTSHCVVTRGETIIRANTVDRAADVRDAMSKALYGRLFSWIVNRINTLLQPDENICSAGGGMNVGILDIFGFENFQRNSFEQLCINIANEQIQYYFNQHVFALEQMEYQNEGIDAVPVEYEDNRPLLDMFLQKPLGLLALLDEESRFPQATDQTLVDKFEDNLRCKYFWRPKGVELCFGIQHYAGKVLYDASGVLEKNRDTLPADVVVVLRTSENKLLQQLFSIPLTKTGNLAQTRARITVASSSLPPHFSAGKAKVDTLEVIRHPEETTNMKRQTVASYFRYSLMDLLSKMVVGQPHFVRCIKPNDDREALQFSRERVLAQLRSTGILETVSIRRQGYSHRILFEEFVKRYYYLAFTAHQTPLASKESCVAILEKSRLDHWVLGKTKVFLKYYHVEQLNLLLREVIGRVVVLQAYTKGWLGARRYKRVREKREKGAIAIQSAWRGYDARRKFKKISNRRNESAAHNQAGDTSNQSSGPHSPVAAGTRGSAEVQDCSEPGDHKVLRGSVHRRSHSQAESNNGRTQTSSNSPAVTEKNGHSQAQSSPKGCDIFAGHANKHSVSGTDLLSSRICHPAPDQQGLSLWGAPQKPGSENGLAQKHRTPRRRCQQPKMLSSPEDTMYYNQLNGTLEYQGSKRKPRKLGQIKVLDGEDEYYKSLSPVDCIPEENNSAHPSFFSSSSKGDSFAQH

[24] = target: Serine/threonine-protein kinase ULK1 (Homo sapiens) (UniProt O75385)
[25] = target: Wee1-like protein kinase (Homo sapiens) (UniProt P30291)
[26] = target: Serine/threonine-protein kinase TAO3 (Homo sapiens) (UniProt Q9H2K8)
[27] = target: 5-hydroxytryptamine receptor 6 (Homo sapiens) (UniProt P50406); conditions: Compound concentration 10.0 uM
[28] = target: Serine/threonine-protein kinase Sgk2 (Homo sapiens) (UniProt Q9HBY8)
[29] = target: Serine/threonine-protein kinase ICK (Homo sapiens) (UniProt Q9UPZ9)
Chain of Serine/threonine-protein kinase ICK (Homo sapiens) (Q9UPZ9 whole entry): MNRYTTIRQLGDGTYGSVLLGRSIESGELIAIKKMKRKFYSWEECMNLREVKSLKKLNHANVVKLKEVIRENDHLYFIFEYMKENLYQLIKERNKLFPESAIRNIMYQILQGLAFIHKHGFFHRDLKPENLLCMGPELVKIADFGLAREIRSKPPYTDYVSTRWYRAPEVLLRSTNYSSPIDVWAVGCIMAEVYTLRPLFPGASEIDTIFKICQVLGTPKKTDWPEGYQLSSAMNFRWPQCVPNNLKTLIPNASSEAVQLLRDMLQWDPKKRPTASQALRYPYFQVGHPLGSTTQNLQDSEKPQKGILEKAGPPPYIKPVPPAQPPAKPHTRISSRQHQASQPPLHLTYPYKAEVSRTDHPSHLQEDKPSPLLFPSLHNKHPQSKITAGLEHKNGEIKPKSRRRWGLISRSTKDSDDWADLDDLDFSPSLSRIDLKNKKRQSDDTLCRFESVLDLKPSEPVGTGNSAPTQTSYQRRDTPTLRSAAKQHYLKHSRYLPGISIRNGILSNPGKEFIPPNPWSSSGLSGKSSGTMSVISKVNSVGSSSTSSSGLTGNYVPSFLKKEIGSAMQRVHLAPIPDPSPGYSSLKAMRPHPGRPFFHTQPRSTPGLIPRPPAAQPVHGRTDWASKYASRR

[30] = target: Homeodomain-interacting protein kinase 4 (Homo sapiens) (UniProt Q8NE63)
[31] = target: Kappa-type opioid receptor (Homo sapiens) (UniProt P41145); conditions: Compound concentration 10.0 uM
[32] = target: Glycogen synthase kinase-3 beta (Homo sapiens) (UniProt P49841)
[33] = target: Ephrin type-A receptor 7 (Homo sapiens) (UniProt Q15375)
[34] = target: Phosphatidylinositol 5-phosphate 4-kinase type-2 gamma (Homo sapiens) (UniProt Q8TBX8)
[35] = target: 5-hydroxytryptamine receptor 1D (Homo sapiens) (UniProt P28221); conditions: Compound concentration 10.0 uM
[36] = target: Ribosomal protein S6 kinase alpha-6 (Homo sapiens) (UniProt Q9UK32)
[37] = system: Tyrosine-protein kinase ABL1 (Homo sapiens), P00519 [T315I]
[38] = target: Phosphatidylinositol 4,5-bisphosphate 3-kinase catalytic subunit beta isoform (Homo sapiens) (UniProt P42338)
[39] = target: Alpha-1D adrenergic receptor (Homo sapiens) (UniProt P25100); conditions: Compound concentration 10.0 uM
Chain of Alpha-1D adrenergic receptor (Homo sapiens) (P25100 whole entry): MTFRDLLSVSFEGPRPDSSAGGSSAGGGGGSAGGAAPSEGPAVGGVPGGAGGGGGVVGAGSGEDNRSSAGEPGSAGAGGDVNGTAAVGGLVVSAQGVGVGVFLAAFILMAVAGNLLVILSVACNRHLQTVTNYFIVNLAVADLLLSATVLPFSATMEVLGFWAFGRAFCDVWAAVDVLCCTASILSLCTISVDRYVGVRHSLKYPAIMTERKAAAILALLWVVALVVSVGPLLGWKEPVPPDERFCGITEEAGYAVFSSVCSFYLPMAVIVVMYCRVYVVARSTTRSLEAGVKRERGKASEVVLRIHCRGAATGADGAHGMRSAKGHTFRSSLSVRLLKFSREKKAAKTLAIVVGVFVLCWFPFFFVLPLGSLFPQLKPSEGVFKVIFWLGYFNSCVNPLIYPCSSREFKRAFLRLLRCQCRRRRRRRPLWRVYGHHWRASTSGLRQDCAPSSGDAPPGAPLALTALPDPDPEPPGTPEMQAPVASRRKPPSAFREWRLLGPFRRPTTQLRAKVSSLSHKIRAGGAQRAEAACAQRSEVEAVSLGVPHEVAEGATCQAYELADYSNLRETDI

[40] = target: Mitogen-activated protein kinase kinase kinase kinase 2 (Homo sapiens) (UniProt Q12851)
[41] = target: Cyclin-dependent kinase 2 homolog (Plasmodium falciparum (isolate 3D7)) (UniProt P61075)
Chain of Cyclin-dependent kinase 2 homolog (Plasmodium falciparum (isolate 3D7)) (P61075 whole entry, the tested form may be a part): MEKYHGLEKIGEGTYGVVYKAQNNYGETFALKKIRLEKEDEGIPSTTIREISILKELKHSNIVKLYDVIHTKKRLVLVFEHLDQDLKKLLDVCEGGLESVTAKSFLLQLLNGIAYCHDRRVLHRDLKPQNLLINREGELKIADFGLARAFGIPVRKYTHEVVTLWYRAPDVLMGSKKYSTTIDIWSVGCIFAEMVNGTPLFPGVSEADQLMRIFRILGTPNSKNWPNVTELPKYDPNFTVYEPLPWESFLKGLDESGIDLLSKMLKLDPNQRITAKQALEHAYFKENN

[42] = target: Ankyrin repeat and protein kinase domain-containing protein 1 (Homo sapiens) (UniProt Q8NFD2)
[43] = target: Tyrosine-protein kinase JAK1 (Homo sapiens) (UniProt P23458)
[44] = target: Serine/threonine-protein kinase WNK2 (Homo sapiens) (UniProt Q9Y3S1)
[45] = target: Aurora kinase C (Homo sapiens) (UniProt Q9UQB9)
[46] = Compound concentration 1000.0 nM
[47] = Compound concentration 100.0 nM

CN(C)c1ncnc(-c2ccc3nc(Nc4cc(CN5CCN(C(=O)CC(F)(F)F)CC5)ccn4)[nH]c3c2)c1Cl [BAY-440]
residual activity [1, 46]: 87% | residual activity [2, 46]: 100% | residual activity [3, 46]: 96% | residual activity [4, 46]: 100% | residual activity [5, 46]: 100% | residual activity [6, 46]: 69% | residual activity [7, 46]: 61% | residual activity [8, 46]: 100% | residual activity [9, 46]: 100% | residual activity [10, 46]: 84% | residual activity [11, 46]: 96% | residual activity [12, 46]: 100% | residual activity [13, 46]: 53% | residual activity [14, 46]: 90% | residual activity [15, 46]: 40% | inhibition [16]: 12.8% | residual activity [17, 46]: 75% | residual activity [18, 46]: 83% | residual activity [19, 46]: 77% | residual activity [20, 46]: 92% | residual activity [21, 46]: 70% | residual activity [22, 46]: 100% | residual activity [23, 46]: 100% | residual activity [24, 46]: 75% | residual activity [25, 46]: 100% | residual activity [26, 46]: 33% | inhibition [27]: 12.4% | residual activity [28, 46]: 43% | residual activity [29, 46]: 100% | residual activity [30, 46]: 100% | inhibition [31]: 33.7% | residual activity [32, 46]: 100% | residual activity [33, 46]: 100% | residual activity [34, 46]: 95% | inhibition [35]: 19.5% | residual activity [36, 46]: 81% | residual activity [37, 46]: 46% | residual activity [38, 46]: 82% | inhibition [39]: 20.8% | residual activity [40, 46]: 69% | residual activity [41, 46]: 85% | residual activity [42, 46]: 57% | residual activity [43, 46]: 93% | residual activity [44, 46]: 59% | residual activity [45, 46]: 100%

C[C@H](c1ccnc(Nc2nc3ccc(-c4cc(N(C)C)ncn4)cc3[nH]2)c1)N1CCN(C(=O)CC(F)(F)F)CC1 [BAY-985]
residual activity [1, 47]: 100% | residual activity [2, 47]: 93% | residual activity [3, 47]: 100% | residual activity [4, 47]: 76% | residual activity [5, 47]: 100% | residual activity [6, 47]: 95% | residual activity [7, 47]: 100% | residual activity [8, 47]: 100% | residual activity [9, 47]: 86% | residual activity [10, 47]: 100% | residual activity [11, 47]: 100% | residual activity [12, 47]: 100% | residual activity [13, 47]: 43% | residual activity [14, 47]: 79% | residual activity [15, 47]: 94% | inhibition [16]: 11.9% | residual activity [17, 47]: 97% | residual activity [18, 47]: 100% | residual activity [19, 47]: 100% | residual activity [20, 47]: 98% | residual activity [21, 47]: 89% | residual activity [22, 47]: 93% | residual activity [23, 47]: 100% | residual activity [24, 47]: 95% | residual activity [25, 47]: 96% | residual activity [26, 47]: 41% | inhibition [27]: -4.38% | residual activity [28, 47]: 100% | residual activity [29, 47]: 88% | residual activity [30, 47]: 100% | inhibition [31]: 4.24% | residual activity [32, 47]: 100% | residual activity [33, 47]: 100% | residual activity [34, 47]: 96% | inhibition [35]: 23.2% | residual activity [36, 47]: 56% | residual activity [37, 47]: 100% | residual activity [38, 47]: 100% | inhibition [39]: 20.2% | residual activity [40, 47]: 100% | residual activity [41, 47]: 100% | residual activity [42, 47]: 99% | residual activity [43, 47]: 92% | residual activity [44, 47]: 92% | residual activity [45, 47]: 100%
